Laboratory results taken from patent US20250346587A1, “NITROGEN-CONTAINING FIVE-MEMBERED HETEROCYCLIC DERIVATIVES AS CHECKPOINT KINASE 1 INHIBITOR AND USES THEREOF” (SPEROGENIX THERAPEUTICS LIMITED, priority 2022, published 2025).
pIC50: −log10 of the molar value. Values after ≈ are worked out from the molar mass of the structure shown.

Experiments:
[1] = Microsomal stability assay, human liver microsome; format: in vitro ADME; details: liver microsomes, pH 7.4, 0.2 mg/mL, 1 μM compound, 37° C., read-out: Clint HLM
Procedure: (§1) Incubation mixture contained 0.2 mg/mL microsomes, 1 mmol NADPH, and test compound at 1 μM in 100 mmol potassium phosphate buffer at pH 7.4. The mixtures were incubated at 37° C. for 5, 15, and 30 minutes. Aliquots of the mixtures were taken at 0, 5, 15 and 30 minutes and quenched with chilled Acetonitrile:Methanol (50:50) containing internal standard. Following completion of incubation, samples were centrifuged at 4,000 rpm at 4° C. The supernatant was analyzed by LC-MS/MS and half-life, as well as intrinsic clearance (Clint), were calculated.

[2] = Kinetic solubility assay (nephelometry); details: PBS, 37 °C, pH 7.4, aqueous buffer, kinetic from dmso stock
Procedure: Test articles were serially diluted in DMSO from concentration range of 10 mM to 0.078 mM in 96 well v-bottom dilution plate (#3363, Corning). 1 μL of test article from each well was transferred to 96 well flat bottom clear plates (#655101, Greiner) containing 99 μL of PBS at pH-7.4, which makes the test drug final concentration range from 100 μM to 0.78 μM. Samples were incubated for 1 hour at 37° C. followed by measurement of light scattering at 625 nm with a laser based micro plate Nephelometer (Nephlostar Plus, BMG Labtech). Solubility concentration (μM) was then calculated by segmental regression with Neplometer as Readout.

[3] = Microsomal stability assay, rat liver microsome; format: in vitro ADME; details: liver microsomes, pH 7.4, 0.2 mg/mL, 1 μM compound, 37° C., read-out: Clint RLM
Procedure: as §1

[4] = biological target: CHK-1 kinase (Homo sapiens (Human), UniProt O14757); experiment: CHK-1 % inhibition kinase assay (TR-FRET); format: biochemical; details: ATP 15 μM; for inhibition at 0.03 µM / inhibition at 0.3 µM: CHK1 enzyme; for inhibition at 0.03 µM: compound 30 nM; for inhibition at 0.3 µM: compound 300 nM; for pIC50: TR-FRET, read-out: CHK1 IC50
Procedure: Inhibition of CHK-1 kinase or percent inhibition at defined concentrations was determined by TR-FRET assay. Kinase reactions were performed in a 20 μL volume in low-volume 384-well plates (Cat #Corning 4511). The concentration of substrate Fluorescein-CREBtide was maintained at 0.2 μM in the assay, and the kinase reaction buffer consisted of 50 mM HEPES pH 7.5, 0.01% BRIJ-35, 10 mM MgCl2, 1 mM EGTA. Serially diluted compounds (3-fold) in DMSO (0.5% in final reaction) were incubated with cocktail of CHK-1 kinase (6 nM; Cat #PR3959B, ThermoFisher), Fluorescein-CREBtide (0.2 μM; Cat #PV3508, ThermoFisher), ATP (15 μM; Cat #A1852, Sigma), and kinase reaction buffer. After 1 hour kinase reactions at room temperature, 10 μL of Detection mix (8 nM LanthaScreen® Tb-CREB [pSer133] antibody, Cat #PV3542, ThermoFisher with 20 mM EDTA in TR-FRET Buffer, Cat #PV3574, ThermoFisher) was added, and the plate was read with a plate reader (Synergy™ NEO; Biotek) for TR-FRET.
The resulting TR-FRET emission ratio was used to calculate the percent inhibition by normalizing to the control using the following formula: […]

[5] = Microsomal stability assay, mouse liver microsome; format: in vitro ADME; details: liver microsomes, pH 7.4, 0.2 mg/mL, 1 μM compound, 37° C., read-out: Clint MLM
Procedure: as §1

CHK-1 kinase, sequence (O14757 whole entry): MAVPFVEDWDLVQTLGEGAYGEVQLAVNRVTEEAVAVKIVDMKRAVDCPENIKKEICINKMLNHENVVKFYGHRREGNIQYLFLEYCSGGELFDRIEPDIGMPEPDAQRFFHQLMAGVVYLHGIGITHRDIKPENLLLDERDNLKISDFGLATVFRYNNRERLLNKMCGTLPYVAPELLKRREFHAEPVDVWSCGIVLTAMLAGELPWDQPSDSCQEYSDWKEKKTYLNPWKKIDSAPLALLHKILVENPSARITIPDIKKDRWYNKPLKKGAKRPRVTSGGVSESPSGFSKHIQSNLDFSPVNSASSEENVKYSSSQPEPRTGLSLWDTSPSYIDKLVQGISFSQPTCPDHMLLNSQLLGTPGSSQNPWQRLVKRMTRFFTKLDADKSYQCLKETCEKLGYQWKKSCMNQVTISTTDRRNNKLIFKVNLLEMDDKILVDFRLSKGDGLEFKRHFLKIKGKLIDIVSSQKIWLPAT

Compound | microsomal CLint at 1 μM [1] | solubility kinetic at 1 h [2] | microsomal CLint at 1 μM [3] | inhibition at 0.03 µM [4] | inhibition at 0.3 µM [4] | pIC50 [4] | microsomal CLint at 1 μM [5]
N#Cc1cnc(Nc2cc(-c3ccccc3OC3CNC3)on2)cn1 [Compound 1.4, 5-(5-(2-(azetidin-3-yloxy)phenyl)isoxazol-3-ylamino) pyrazine-2-carbonitrile] | 52 µL/min/mg | 100 µM (≈ 33.4 µg/mL) | 27 µL/min/mg | 7% | 54% | 7.06 | 66 µL/min/mg
N#Cc1cnc(Nc2cc(-c3ccccc3OCCCN)on2)cn1 [Compound 1.5, 5-(5-(2-(3-aminopropoxy)phenyl)isoxazol-3-ylamino) pyrazine-2-carbonitrile] | 78 µL/min/mg | 41.8 µM (≈ 14.1 µg/mL) | 70 µL/min/mg | 63% | 89% | 8.11 | 77 µL/min/mg
N#Cc1cnc(Nc2cc(-c3ccccc3OCCCCN)on2)cn1 [Compound 1.6, 5-(5-(2-(4-aminobutoxy)phenyl)isoxazol-3-ylamino) pyrazine-2-carbonitrile] | 63 µL/min/mg | 42.8 µM (≈ 15 µg/mL) | 118 µL/min/mg | 71% | 91% | 7.91 | 63 µL/min/mg
N#Cc1cnc(Nc2cc(-c3ccccc3OCCN)on2)cn1 [Compound 1.7, 5-(5-(2-(2-aminoethoxy)phenyl)isoxazol-3-ylamino) pyrazine-2-carbonitrile] | 75 µL/min/mg | 39.2 µM (≈ 12.6 µg/mL) | 118 µL/min/mg | 36% | 82% | – | 114 µL/min/mg
CN1CCOC(COc2ccccc2-c2cc(Nc3cnc(C#N)cn3)no2)C1 (stereo not shown) [Compound 1.8, 5-(5-(2-((4-methylmorpholin-2-yl)methoxy)phenyl)isoxazol-3-ylamino) pyrazine-2-carbonitrile] | 202 µL/min/mg | 32 µM (≈ 12.6 µg/mL) | 104 µL/min/mg | 51% | 64% | 7.12 | 481 µL/min/mg
CN1CC(Oc2ccccc2-c2cc(Nc3cnc(C#N)cn3)no2)C1 [Compound 1.10, 5-(5-(2-(1-methylazetidin-3-yloxy)phenyl)isoxazol-3-ylamino) pyrazine-2-carbonitrile] | 80 µL/min/mg | 30.5 µM (≈ 10.6 µg/mL) | 49 µL/min/mg | 44% | 65% | – | 243 µL/min/mg
COc1ccccc1-c1cc(Nc2cnc(C#N)cn2)no1 [Compound 1.11, 5-(5-(2-methoxyphenyl)isoxazol-3-ylamino) pyrazine-2-carbonitrile] | 140 µL/min/mg | 14 µM (≈ 4.11 µg/mL) | 79 µL/min/mg | 12% | 36% | – | 382 µL/min/mg
CC(C)CC(C)N1CC(Oc2ccccc2-c2cc(Nc3cnc(C#N)cn3)no2)C1 (stereo not shown) [Compound 1.12, 5-(5-(2-(1-(4-methylpentan-2-yl)azetidin-3-yloxy)phenyl)isoxazol-3-ylamino) pyrazine-2-carbonitrile] | 478 µL/min/mg | 38.4 µM (≈ 16.1 µg/mL) | 266 µL/min/mg | 21% | 30% | – | 473 µL/min/mg
CC(C)N1CC(Oc2ccccc2-c2cc(Nc3cnc(C#N)cn3)no2)C1 [Compound 1.13, 5-(5-(2-(1-isopropylazetidin-3-yloxy)phenyl)isoxazol-3-ylamino) pyrazine-2-carbonitrile] | 86 µL/min/mg | 11.9 µM (≈ 4.48 µg/mL) | 84 µL/min/mg | 15% | 32% | – | 221 µL/min/mg
